# System: mixed lymphocyte reaction
# Assay: Effect of keratan sulphate on a mixed lymphocyte reaction
# Format: cell-based
# Conditions: 20 μg/ml
# Description: The function of keratan sulphate in prostate tissue is unknown. It is known, however, that GAG compounds are important in the prevention of autoimmune bonne diseases (forms of arthritis). In order to determine whether keratan sulphate may have an immune regulatory effect it was assessed by intorducing it into a mixed lymphocyte reaction. […] At markedly diluted lymphocyte ratios of >270:1 no effect was evident (see FIG. 2).
substance,measurement,setting,value
keratan sulphate,reduction of mixed lymphocyte reaction,"lymphocyte ratios of 10, 30 and 90:1",50%
same,effect on mixed lymphocyte reaction,markedly diluted lymphocyte ratios of >270:1,no effect

# From US6677157B1, “Method of diagnosis of prostate cancer” (Uropath Pty Ltd., A.C.N., priority 1998, dated 2004)
